Experiment: xn = mol fraction of the nth substance listed
Conditions: Gas, Buoyancy - hydrostatic balance with magnetic suspension - one sinker

C [methane] + O=C=O
Conditions | mass density [kg/m3]
313.09 K, 17999 kPa, x2 = 0.2017 | 188.702
313.1 K, 4001 kPa, x2 = 0.8988 | 75.134
313.1 K, 4996 kPa, x2 = 0.3997 | 58.587
313.1 K, 5996 kPa, x2 = 0.7985 | 114.567
313.1 K, 7003 kPa, x2 = 0.7985 | 142.512
313.1 K, 7006 kPa, x2 = 0.6015 | 110.298
313.11 K, 7997 kPa, x2 = 0.7985 | 174.464
313.11 K, 10000 kPa, x2 = 0.6015 | 177.419
313.11 K, 12001 kPa, x2 = 0.0998 | 102.596
313.11 K, 14997 kPa, x2 = 0.3997 | 217.543
313.12 K, 7992 kPa, x2 = 0.8988 | 206.745
313.12 K, 14996 kPa, x2 = 0.8988 | 624.636
313.13 K, 4001 kPa, x2 = 0.0998 | 30.822
313.13 K, 4002 kPa, x2 = 0.6015 | 56.419
313.13 K, 5003 kPa, x2 = 0.8988 | 100.174
313.13 K, 6004 kPa, x2 = 0.6015 | 90.955
313.13 K, 9996 kPa, x2 = 0.7985 | 256.481
313.13 K, 10003 kPa, x2 = 0.0998 | 83.788
313.13 K, 11005 kPa, x2 = 0.3997 | 149.559
313.14 K, 3998 kPa, x2 = 0.3997 | 45.694
313.14 K, 7995 kPa, x2 = 0.6015 | 130.852
313.14 K, 11000 kPa, x2 = 0.0998 | 93.126
313.14 K, 11001 kPa, x2 = 0.2017 | 110.189
313.14 K, 11001 kPa, x2 = 0.6015 | 202.91
313.14 K, 15004 kPa, x2 = 0.7985 | 485.573
313.15 K, 4004 kPa, x2 = 0.7985 | 68.752
313.15 K, 5996 kPa, x2 = 0.3997 | 72.099
313.15 K, 11997 kPa, x2 = 0.8988 | 506.067
313.16 K, 5003 kPa, x2 = 0.7985 | 90.396
313.16 K, 6996 kPa, x2 = 0.3997 | 86.285
313.16 K, 18004 kPa, x2 = 0.6015 | 375.856
313.17 K, 3002 kPa, x2 = 0.0998 | 22.748
313.17 K, 5002 kPa, x2 = 0.6015 | 73.052
313.17 K, 5997 kPa, x2 = 0.8988 | 128.664
313.17 K, 8998 kPa, x2 = 0.6015 | 153.28
313.17 K, 15002 kPa, x2 = 0.0998 | 130.663
313.17 K, 18004 kPa, x2 = 0.0998 | 157.443
313.17 K, 18005 kPa, x2 = 0.7985 | 560.943
313.18 K, 8998 kPa, x2 = 0.8988 | 265.242
313.18 K, 9004 kPa, x2 = 0.2017 | 87.631
313.18 K, 11998 kPa, x2 = 0.6015 | 229.134
313.18 K, 14996 kPa, x2 = 0.2017 | 155.927
313.19 K, 5002 kPa, x2 = 0.0998 | 39.114
313.19 K, 6000 kPa, x2 = 0.0998 | 47.652
313.19 K, 8998 kPa, x2 = 0.3997 | 116.64
313.19 K, 9995 kPa, x2 = 0.3997 | 132.712
313.19 K, 10993 kPa, x2 = 0.7985 | 305.994
313.19 K, 11992 kPa, x2 = 0.3997 | 166.169
313.2 K, 3998 kPa, x2 = 0.2017 | 35.711
313.2 K, 9001 kPa, x2 = 0.0998 | 74.487
313.2 K, 9003 kPa, x2 = 0.7985 | 212.239
313.2 K, 10990 kPa, x2 = 0.8988 | 432.06
313.21 K, 5000 kPa, x2 = 0.2017 | 45.475
313.21 K, 6999 kPa, x2 = 0.0998 | 56.348
313.21 K, 8000 kPa, x2 = 0.0998 | 65.323
313.21 K, 9999 kPa, x2 = 0.8988 | 344.181
313.21 K, 14995 kPa, x2 = 0.6015 | 308.146
313.21 K, 17995 kPa, x2 = 0.8988 | 683.03
313.21 K, 17997 kPa, x2 = 0.3997 | 264.841
313.22 K, 5999 kPa, x2 = 0.2017 | 55.518
313.22 K, 6997 kPa, x2 = 0.8988 | 163.201
313.22 K, 8000 kPa, x2 = 0.2017 | 76.608
313.22 K, 11998 kPa, x2 = 0.2017 | 121.576
313.22 K, 12000 kPa, x2 = 0.7985 | 357.778
313.23 K, 7005 kPa, x2 = 0.2017 | 65.96
313.24 K, 10003 kPa, x2 = 0.2017 | 98.786
313.27 K, 8000 kPa, x2 = 0.3997 | 101.088
333.06 K, 10002 kPa, x2 = 0.2017 | 88.824
333.07 K, 4003 kPa, x2 = 0.7985 | 62.105
333.07 K, 11999 kPa, x2 = 0.3997 | 144.496
333.07 K, 17998 kPa, x2 = 0.2017 | 166.841
333.08 K, 4997 kPa, x2 = 0.6015 | 65.944
333.08 K, 5002 kPa, x2 = 0.3997 | 53.475
333.08 K, 8999 kPa, x2 = 0.2017 | 79.049
333.08 K, 9003 kPa, x2 = 0.3997 | 103.555
333.08 K, 15000 kPa, x2 = 0.8988 | 456.324
333.1 K, 5000 kPa, x2 = 0.0998 | 36.091
333.11 K, 6004 kPa, x2 = 0.6015 | 81.338
333.11 K, 11001 kPa, x2 = 0.2017 | 98.605
333.12 K, 4001 kPa, x2 = 0.6015 | 51.39
333.12 K, 4003 kPa, x2 = 0.2017 | 33.068
333.12 K, 6995 kPa, x2 = 0.3997 | 77.606
333.12 K, 9995 kPa, x2 = 0.3997 | 116.802
333.12 K, 14999 kPa, x2 = 0.0998 | 116.773
